Experimental data published in ChEMBL document CHEMBL6109079, “Discovery of novel pyrimidinetrione derivatives as DprE1 inhibitors with potent antimycobacterial activities” (Eur J Med Chem, 2025).
Converted amounts (≈) assume the structure as drawn. The source made the active and inactive calls. The rule behind the calls is not given here.

Assays:
[1] = Inhibition of DprE1 (unknown origin) preincubated with FAD followed by compound addition and measured after 2 mins by fluorescence based microplate reader; set-up: species or system Bacteria
[2] = system: Mycobacterium tuberculosis; assay: Antibacterial activity against Mycobacterium tuberculosis H37Ra assessed as inhibition of bacterial growth at 50 uM incubated for 3 weeks by absorbance based microplate reader relative to control; assay type: functional; settings: 504 h
[3] = system: Mycobacterium tuberculosis; assay: Antibacterial activity against Mycobacterium tuberculosis H37Ra assessed as inhibition of bacterial growth incubated for 1 weeks by absorbance based microplate reader; assay type: functional; settings: 168 h
[4] = system: Mycobacterium tuberculosis; assay: Antibacterial activity against Mycobacterium tuberculosis H37Ra assessed as inhibition of bacterial growth at 10 uM incubated for 3 weeks by absorbance based microplate reader relative to control; assay type: functional; settings: 504 h
[5] = system: Mycobacterium tuberculosis; assay: Antibacterial activity against Mycobacterium tuberculosis H37Rv assessed as inhibition of bacterial growth at 10 uM incubated for 3 weeks by absorbance based microplate reader relative to control; assay type: functional; settings: 504 h
[6] = Cytotoxicity against human THP-1 cells assessed as cell viability at 200 uM incubated for 24 hrs by CCK-8 assay relative to control; assay type: toxicity, cell-based; settings: read-out: Activity
[7] = Cytotoxicity against human THP-1 cells assessed as reduction in cell viability incubated for 24 hrs by CCK-8 assay; assay type: toxicity, cell-based
[8] = Selectivity index, ratio of CC50 for cytotoxicity against human THP-1 cells to MIC50 for antibacterial activity against Mycobacterium tuberculosis H37Ra; assay type: toxicity, cell-based; settings: read-out: Selectivity Index
[9] = biological target: T1, Decaprenylphosphoryl-beta-D-ribose oxidase (Mycobacterium smegmatis (strain ATCC 700084 / mc(2)155), UniProt A0R607); assay: Binding affinity to full length N-terminal 6his-tagged Mycobacterium smegmatis ATCC 607 DprE1 extracted from Escherichia coli BL21 assessed as dissociation constant incubated for 10 mins; set-up: species or system Mycolicibacterium smegmatis
T1 sequence (A0R607 whole entry): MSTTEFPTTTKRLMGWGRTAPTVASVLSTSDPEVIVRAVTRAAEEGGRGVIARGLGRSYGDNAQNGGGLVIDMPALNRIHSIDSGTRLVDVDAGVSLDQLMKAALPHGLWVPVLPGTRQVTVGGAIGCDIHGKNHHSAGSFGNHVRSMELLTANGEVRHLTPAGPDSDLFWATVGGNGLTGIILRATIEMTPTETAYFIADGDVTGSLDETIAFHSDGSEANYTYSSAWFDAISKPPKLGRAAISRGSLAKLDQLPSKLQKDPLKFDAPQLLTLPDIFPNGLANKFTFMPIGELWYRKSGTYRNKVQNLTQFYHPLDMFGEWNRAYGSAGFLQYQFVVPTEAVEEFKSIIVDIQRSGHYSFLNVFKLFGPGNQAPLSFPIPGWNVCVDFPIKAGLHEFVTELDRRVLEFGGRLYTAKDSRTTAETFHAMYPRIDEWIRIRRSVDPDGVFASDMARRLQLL

[10] = Binding affinity to recombinant DprE1 (unknown origin) assessed as dissociation constant incubated for 10 mins by MST analysis; set-up: species or system Bacteria
[11] = system: Mycobacterium tuberculosis; assay: Antibacterial activity against Mycobacterium tuberculosis H37Ra infected in PMA-differentiated human THP-1 cells assessed as reduction in colony forming units measured after 3 weeks by absorbance based assay; assay type: functional, organism-based; settings: dose 10-100 µM
[12] = system: Mycobacterium tuberculosis; assay: Antibacterial activity against Mycobacterium tuberculosis H37Rv infected in PMA-differentiated human THP-1 cells assessed as reduction in colony forming units at 100 uM measured after 3 weeks by absorbance based assay; assay type: functional, organism-based

Compound | IC50 [1] [µM] | inhibition at 50 µM [2] [%] | MIC50 [3] [µM] | inhibition at 10 µM [4] [%] | inhibition at 10 µM [5] [%] | viability at 24 h, 200 µM [6] [%] | CC50 at 24 h [7] [µM] | selectivity ratio [8] | also measured
O=C1NC(=O)N(C2CCC2)C(=O)/C1=C/NNC(=O)c1ccncc1 | 18.1 | 100 | 2.37 (≈ 0.782 µg/mL) | 100 | 100 | 100 | > 200 | > 84.2 | 
O=C(CCl)NN/C=C1\C(=O)NC(=O)N(Cc2ccccc2)C1=O | > 100 |  |  |  |  |  |  |  | 
CCOCC(=O)NN/C=C1\C(=O)NC(=O)N(Cc2ccccc2)C1=O | > 100 |  |  |  |  |  |  |  | 
Cc1ccc(S(=O)(=O)C(=O)NN/C=C2\C(=O)NC(=O)N(Cc3ccccc3)C2=O)cc1 | 62 |  |  |  |  |  |  |  | 
O=C1NC(=O)N(Cc2ccccc2)C(=O)/C1=C/NNC(=O)c1ccc(Cl)cc1 | 23.9 |  |  |  |  |  |  |  | 
C=CCN1C(=O)NC(=O)/C(=C\NNC(=O)c2ccnc3ccccc23)C1=O | 12.8 |  |  |  |  |  |  |  | 
COc1ccc(C(=O)NN/C=C2\C(=O)NC(=O)N(Cc3ccccc3)C2=O)cc1 | 3.03 |  |  |  |  |  |  |  | 
C=CCN1C(=O)NC(=O)/C(=C\NNC(=O)c2ccncc2)C1=O | 54.6 |  |  |  |  |  |  |  | Kd [9]: 0.0025 µM; Kd [10]: 0.025 µM
O=C1NC(=O)N(C2CC2)C(=O)/C1=C/NNC(=O)c1ccncc1 | 20.3 | 100 | 1.12 (≈ 0.353 µg/mL) | 100 | 100 | 100 | > 200 | > 179 | Activity [11]: Dose-dependent-effect; Kd [10]: 2.23 µM
C=CCN1C(=O)NC(=O)/C(=C\NNC(=O)c2cccc3ncccc23)C1=O | 11.1 |  |  |  |  |  |  |  | 
O=C1NC(=O)C(=CNNC(=O)c2ccncc2)C(=O)N1 | > 100 | 100 | 1.78 (≈ 0.491 µg/mL) | 100 | 100 | 100 | > 200 | > 112 | 
O=C1NC(=O)N(Cc2ccccc2)C(=O)/C1=C/NNC(=O)c1ccc(O)cc1 | 8.56 |  |  |  |  |  |  |  | 
O=C1NC(=O)N(C2CC2)C(=O)/C1=C/NNC(=O)c1cccc2ncccc12 | 15.2 |  |  |  |  |  |  |  | 
C#CCN1C(=O)NC(=O)/C(=C\NNC(=O)c2ccncc2)C1=O | 12.7 | 100 | 1.07 (≈ 0.336 µg/mL) | 100 | 100 | 100 | > 200 | > 187 | Activity [11]: Dose-dependent-effect; Best Bactericidal Effect Observed; Activity [12]: Active; Kd [10]: 0.068 µM
COc1cccc(C(=O)NN/C=C2\C(=O)NC(=O)N(Cc3ccccc3)C2=O)c1 | 6.53 |  |  |  |  |  |  |  | 
CC(C)N1C(=O)NC(=O)/C(=C\NNC(=O)c2ccncc2)C1=O | 47.4 | 100 | 1.75 (≈ 0.555 µg/mL) | 100 | 100 | 100 | > 200 | > 114 | 
CC(=O)Nc1ccc(C(=O)NN/C=C2\C(=O)NC(=O)N(Cc3ccccc3)C2=O)cc1 | 27.6 |  |  |  |  |  |  |  | 
C=CCN1C(=O)C(=CNNC(=O)c2ccncc2)C(=O)N(CC=C)C1=O | > 100 | 100 | 2.89 (≈ 1.03 µg/mL) | 100 | 100 | 100 | > 200 | > 69.2 | 
O=C1NC(=O)N(Cc2ccccc2)C(=O)/C1=C/NNC(=O)c1cccc(Cl)c1 | 24.3 |  |  |  |  |  |  |  | 
O=C1NC(=O)N(Cc2ccccc2)C(=O)/C1=C/NNC(=O)c1cccc([N+](=O)[O-])c1 | 42.5 |  |  |  |  |  |  |  | 
C=CCN1C(=O)NC(=O)/C(=C\NNC(=O)c2ccccc2)C1=O | 15.3 |  |  |  |  |  |  |  | 
O=C1NC(=O)N(CCO)C(=O)/C1=C/NNC(=O)c1ccncc1 | 45.7 | 100 | 1.2 (≈ 0.384 µg/mL) | 100 | 100 | 100 | > 200 | > 166 | Activity [11]: Dose-dependent-effect; Kd [10]: 0.135 µM
O=C1NC(=O)N(Cc2ccccc2)C(=O)/C1=C/NNC(=O)c1cccnc1 | 28.8 |  |  |  |  |  |  |  | 
